Biological target: T1, mutated beta-galactosidase (p.R60H canine GLB1) in GM11473 fibroblasts (Canis lupus familiaris, UniProt Q9TRY9, R60H)
T1 construct: host or cells: GM11473 canine GM1 gangliosidosis fibroblasts
T1 sequence (Q9TRY9 30-668 R60H): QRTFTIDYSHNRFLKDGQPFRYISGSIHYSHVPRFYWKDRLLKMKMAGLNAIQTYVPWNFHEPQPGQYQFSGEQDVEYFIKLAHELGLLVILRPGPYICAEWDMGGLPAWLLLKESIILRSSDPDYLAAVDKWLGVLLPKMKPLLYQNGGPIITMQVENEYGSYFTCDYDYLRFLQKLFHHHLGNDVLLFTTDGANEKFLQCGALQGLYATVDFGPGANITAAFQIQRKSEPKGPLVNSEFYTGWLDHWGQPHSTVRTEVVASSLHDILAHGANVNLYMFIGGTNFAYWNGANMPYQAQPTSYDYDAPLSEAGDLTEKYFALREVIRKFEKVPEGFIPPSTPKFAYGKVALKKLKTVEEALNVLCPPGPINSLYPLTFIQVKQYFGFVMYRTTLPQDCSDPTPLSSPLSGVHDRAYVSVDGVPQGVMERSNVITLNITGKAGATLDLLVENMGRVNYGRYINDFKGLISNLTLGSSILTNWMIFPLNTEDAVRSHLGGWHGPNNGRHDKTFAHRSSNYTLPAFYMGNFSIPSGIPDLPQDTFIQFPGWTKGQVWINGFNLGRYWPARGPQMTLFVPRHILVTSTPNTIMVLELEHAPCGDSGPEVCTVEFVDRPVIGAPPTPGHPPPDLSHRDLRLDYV
Assay: Enhancement of β-galactosidase activity measured in GM1 fibroblasts (GM11473), 4-MU-β-D-galactopyranoside substrate
Format: cell-based
Parameters: key: Increase in comparison with non-treated of >2.5 fold is shown as A; Increase in comparison with non-treated of >1.7-2.5 fold is shown as B; Increase in comparison with non-treated of 1.2-1.7 fold is shown as C; D means that no increase compared with non-treated cells was detected in this method
Details: increase in β-galactosidase enzyme activity vs non-treated cells, concentrations between 6 and 50 μM, 4 days incubation
Description: The capacity of the Compounds of the Disclosure to enhance mutated beta-galactosidase activity levels in GM1 fibroblasts was assayed as follows.
Fibroblasts homozygous for a GM1 gangliosidosis missense mutation (GM11473) (canine fibroblasts homozygous for the GM1 gangliosidosis missense mutation p.R60H equivalent to human p.R59H mutation) were purchased from Coriell Institute for Medical Research (Camden, N.J., USA).
Fibroblasts were seeded at 4×10^4 cells per well in 12-well cell culture plates in Dulbecco's Modified Eagle's Media (DMEM) supplemented with 10% of fetal bovine serum (FBS), 1% penicillin/streptomycin (P/S) (Thermo Fisher Scientific, Waltham, Mass., USA) and incubated at 37° C., 5% CO2 overnight for cell attachment. Subsequently, cells were incubated in the absence or presence of the compounds at the desired concentration for 4 days. After incubation, cells were washed twice with phosphate-buffered saline (“PBS”) and detached using Trypsin-EDTA solution (Sigma Aldrich, St. Louis, Mo., USA) to prepare cell pellets. The pellets were stored at −80° C. until activity assays were performed.
β-Galactosidase activity in cell lysates was measured by using 4-Methylumbelliferyl-β-D-galactopyranoside substrate (Sigma Aldrich, St. Louis, Mo., USA). Briefly, lysates were resuspended in 200 μL of 0.9% NaCl containing 0.01% triton X-100 lysis buffer to promote membrane disruption. The cell suspension was sonicated and centrifuged to remove insoluble materials. Then, lysates were mixed with 4-MU-β-D-galactopyranoside in 100 mM citrate buffer (pH=4) and 100 mM NaCl for 60 min at 37° C. The reaction was terminated by adding 100 mM glycine-NaOH buffer (pH=10.7). The liberated 4-MU was measured on a GloMax Discover plate reader (Promega, Madison, Wis., USA) with excitation at 340 nm and emission at 460 nm. Protein quantification was determined using Pierce BCA Protein Assay Kit (Thermo Fisher Scientific, Waltham, Mass., USA). Measurements were interpolated in a 4-MU standard curve and normalized by protein quantity. Enzyme activities were expressed in treated cells as X-fold increase in comparison with non-treated cells (X=1 represents no enhancement).
The capacity of the Compounds of the Disclosure to produce an increase in β-galactosidase enzyme activity in canine GM1 fibroblasts bearing p.R60H canine GLB1 mutation at concentrations between 6 and 50 μM is denoted as follows: • Increase in comparison with non-treated of >2.5 fold is shown as A. • Increase in comparison with non-treated of >1.7-2.5 fold is shown as B. • Increase in comparison with non-treated of 1.2-1.7 fold is shown as C. • D means that no increase compared with non-treated cells was detected in this method. • ND means “not determined.”

Compound | Activity in GM11473 fibroblasts
COc1cccc(CNC(=O)c2cc(Nc3nccc4ccc(Cl)cc34)ccn2)c1 [Example 11, 4-((7-Chloroisoquinolin-1-yl)amino)-N-(3-methoxybenzyl)picolinamide] | B (Increase in comparison with non-treated of >1.7-2.5 fold is shown as B)
COc1ccc2c(c1)CCC(NC(=O)c1ccc(Nc3nccc4ccc(Cl)cc34)cn1)C2 (centres unmarked) [Example 40, 5-((7-Chloroisoquinolin-1-yl)amino)-N-(6-methoxy-1,2,3,4-tetrahydronaphthalen-2-yl)picolinamide] | B (Increase in comparison with non-treated of >1.7-2.5 fold is shown as B)
O=C(NCCc1ccc2c(c1)OCCO2)c1cc(Nc2nccc3ccc(Cl)cc23)ccn1 [Example 18, 4-((7-Chloroisoquinolin-1-yl)amino)-N-(2-(2,3-dihydrobenzo[b][1,4]dioxin-6-yl)ethyl)picolinamide] | C (Increase in comparison with non-treated of 1.2-1.7 fold is shown as C)
O=C(NCc1ccccc1)c1cccc(Nc2nccc3ccc(Cl)cc23)c1 [Example 4, N-benzyl-3-((7-chloroisoquinolin-1-yl)amino)benzamide] | D
O=S(=O)(NCC(c1ccccn1)N1CCOCC1)c1ccc(Nc2nccc3ccc(Cl)cc23)cc1 (centres unmarked) [Example 72, 4-((7-Chloroisoquinolin-1-yl)amino)-N-(2-morpholino-2-(pyridin-2-yl)ethyl)benzenesulfonamide] | D
COc1ccc(CNC(=O)c2ccc(Nc3nccc4ccc(Cl)cc34)nc2)cc1 [Example 56, 6-((7-Chloroisoquinolin-1-yl)amino)-N-(4-methoxybenzyl)nicotinamide] | D
O=C(NCc1ccc2c(c1)CCCO2)c1ccc(Nc2nccc3ccc(Cl)cc23)nc1 [Example 63, 6-((7-Chloroisoquinolin-1-yl)amino)-N-(chroman-6-ylmethyl)nicotinamide] | C (Increase in comparison with non-treated of 1.2-1.7 fold is shown as C)
COc1ccc(CNC(=O)c2ccc(Nc3nccc4ccc(Cl)cc34)cn2)cc1 [Example 30, 5-((7-Chloroisoquinolin-1-yl)amino)-N-(4-methoxybenzyl)picolinamide] | B (Increase in comparison with non-treated of >1.7-2.5 fold is shown as B)
COc1ccc2ccnc(Nc3ccc(C(=O)NCC4CCc5ccccc5C4)nc3)c2c1 (centres unmarked) [Example 47, 5-((7-Methoxyisoquinolin-1-yl)amino)-N-((1,2,3,4-tetrahydronaphthalen-2-yl)methyl)picolinamide] | B (Increase in comparison with non-treated of >1.7-2.5 fold is shown as B)
O=C(NCC(c1cccnc1)N1CCCC1)c1cc(Nc2nccc3ccc(Cl)cc23)ccn1 (centres unmarked) [Example 7, 4-((7-Chloroisoquinolin-1-yl)amino)-N-(2-(pyridin-3-yl)-2-(pyrrolidin-1-yl)ethyl)picolinamide] | C (Increase in comparison with non-treated of 1.2-1.7 fold is shown as C)
Cn1nnc2c(NS(=O)(=O)c3cccc(Nc4nccc5ccc(Cl)cc45)c3)cccc21 [Example 67, 3-((7-Chloroisoquinolin-1-yl)amino)-N-(1-methyl-1H-benzo[d][1,2,3]triazol-4-yl)benzenesulfonamide] | C (Increase in comparison with non-treated of 1.2-1.7 fold is shown as C)
O=S(=O)(NC1CCc2ccccc2C1)c1ccc(Nc2nccc3ccc(Cl)cc23)cc1 (centres unmarked) [Example 77, 4-((7-Chloroisoquinolin-1-yl)amino)-N-(1,2,3,4-tetrahydronaphthalen-2-yl)benzenesulfonamide] | A (Increase in comparison with non-treated of >2.5 fold is shown as A)
COc1ccc2c(c1)CCC(NC(=O)c1ccc(Nc3nccc4ccc(OC)cc34)cn1)C2 (centres unmarked) [Example 46, N-(6-methoxy-1,2,3,4-tetrahydronaphthalen-2-yl)-5-((7-methoxyisoquinolin-1-yl)amino)picolinamide] | C (Increase in comparison with non-treated of 1.2-1.7 fold is shown as C)
O=C(NCCc1ccc2c(c1)OCCO2)c1ccc(Nc2nccc3ccc(Cl)cc23)cn1 [Example 38, 5-((7-Chloroisoquinolin-1-yl)amino)-N-(2-(2,3-dihydrobenzo[b][1,4]dioxin-6-yl)ethyl)picolinamide] | D
O=C(NCc1ccccc1)c1ccc(Nc2nccc3ccc(Cl)cc23)cn1 [Example 29, N-benzyl-5-((7-chloroisoquinolin-1-yl)amino)picolinamide] | A (Increase in comparison with non-treated of >2.5 fold is shown as A)
COc1cccc(CNC(=O)c2ccc(Nc3nccc4ccc(Cl)cc34)cn2)c1 [Example 31, 5-((7-Chloroisoquinolin-1-yl)amino)-N-(3-methoxybenzyl)picolinamide] | B (Increase in comparison with non-treated of >1.7-2.5 fold is shown as B)
COc1cccc(CNC(=O)c2ccc(Nc3nccc4ccc(Cl)cc34)nc2)c1 [Example 57, 6-((7-Chloroisoquinolin-1-yl)amino)-N-(3-methoxybenzyl)nicotinamide] | C (Increase in comparison with non-treated of 1.2-1.7 fold is shown as C)
Cn1nnc2c(NS(=O)(=O)c3ccc(Nc4nccc5ccc(Cl)cc45)cc3)cccc21 [Example 73, 4-((7-Chloroisoquinolin-1-yl)amino)-N-(1-methyl-1H-benzo[d][1,2,3]triazol-4-yl)benzenesulfonamide] | D
O=C(NCc1ccc2c(c1)OCCO2)c1cccc(Nc2nccc3ccc(Cl)cc23)c1 [Example 3, 3-((7-Chloroisoquinolin-1-yl)amino)-N-((2,3-dihydrobenzo[b][1,4]dioxin-6-yl)methyl)benzamide] | C (Increase in comparison with non-treated of 1.2-1.7 fold is shown as C)
Cn1nnc2cc(CNS(=O)(=O)c3cccc(Nc4nccc5ccc(Cl)cc45)c3)ccc21 [Example 71, 3-((7-Chloroisoquinolin-1-yl)amino)-N-((1-methyl-1H-benzo[d][1,2,3]triazol-5-yl)methyl)benzenesulfonamide] | C (Increase in comparison with non-treated of 1.2-1.7 fold is shown as C)
O=C(NCC(c1ccccn1)N1CCOCC1)c1cccc(Nc2nccc3ccc(Cl)cc23)c1 (centres unmarked) [Example 2, 3-((7-Chloroisoquinolin-1-yl)amino)-N-(2-morpholino-2-(pyridin-2-yl)ethyl)benzamide] | C (Increase in comparison with non-treated of 1.2-1.7 fold is shown as C)
O=C(NCc1ccc2c(c1)OCCCO2)c1ccc(Nc2nccc3ccc(Cl)cc23)cn1 [Example 35, 5-((7-Chloroisoquinolin-1-yl)amino)-N-((3,4-dihydro-2H-benzo[b][1,4]dioxepin-7-yl)methyl)picolinamide] | C (Increase in comparison with non-treated of 1.2-1.7 fold is shown as C)
O=S(=O)(NCC(c1cccnc1)N1CCCC1)c1cccc(Nc2nccc3ccc(Cl)cc23)c1 (centres unmarked) [Example 65, 3-((7-Chloroisoquinolin-1-yl)amino)-N-(2-(pyridin-3-yl)-2-(pyrrolidin-1-yl)ethyl)benzenesulfonamide] | C (Increase in comparison with non-treated of 1.2-1.7 fold is shown as C)

Source: patent US11440898B2, “Isoquinoline compounds, methods for their preparation, and therapeutic uses thereof in conditions associated with the alteration of the activity of beta galactosidase” (Minoryx Therapeutics S.L., priority 2016, dated 2022)
